pEC50, pIC50: −log10 of the molar value. Where two headings read alike, the source gives them in different places.
Experiments:
IRAK4 enzyme = IRAK4 enzyme (Homo sapiens (Human), UniProt Q9NWZ3); assay: biochemical; format: biochemical; conditions: IRAK4 enzyme, 500 μM ATP
TNFα = assay: cells; format: cell-based, human; conditions: LPS-stimulated human monocytes, read-out: EC50 TNF
[1] = Homo sapiens, Monocyte, TNFα content
[2] = Homo sapiens, Monocyte, TNFα by TR-FRET

Chain of IRAK4 enzyme (Q9NWZ3 whole entry): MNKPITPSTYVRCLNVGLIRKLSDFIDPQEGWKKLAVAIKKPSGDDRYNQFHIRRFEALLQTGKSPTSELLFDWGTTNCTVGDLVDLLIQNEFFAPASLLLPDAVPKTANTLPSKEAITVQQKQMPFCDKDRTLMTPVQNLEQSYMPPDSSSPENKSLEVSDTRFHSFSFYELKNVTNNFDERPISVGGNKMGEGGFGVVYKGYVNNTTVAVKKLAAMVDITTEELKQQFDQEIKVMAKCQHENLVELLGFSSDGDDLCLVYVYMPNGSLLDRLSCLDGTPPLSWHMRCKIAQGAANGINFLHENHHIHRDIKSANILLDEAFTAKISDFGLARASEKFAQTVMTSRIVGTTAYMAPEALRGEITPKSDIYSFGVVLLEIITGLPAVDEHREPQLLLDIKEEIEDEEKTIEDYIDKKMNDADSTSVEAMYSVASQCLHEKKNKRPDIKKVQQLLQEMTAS

Compound	pIC50 (IRAK4 enzyme; TR-FRET (HTRF))	pEC50 (TNFα; [1])	pIC50 (IRAK4 enzyme; TR-FRET)	pEC50 (TNFα; [2])	pEC50 (TNFα; TNFα content)
CC1(O)CC2(CC(Nc3cc(-c4ccc5cc(C#N)cnn45)ncc3C(=O)NCC#N)C2)C1 (stereo not shown) [Example 452, N-(cyanomethyl)-6-(3-cyanopyrrolo[1,2-b]pyridazin-7-yl)-4-((6-hydroxy-6-methyl-spiro[3.3]heptan-2-yl)amino)nicotinamide]	> 9.00	6.95	–	–	–
CC(C)(O)[C@H](F)CNC(=O)c1cnc(-c2ccc3cc(C#N)cnn23)cc1Nc1ccc(-c2cnco2)cc1 [Example 216, (R)-6-(3-cyanopyrrolo[1,2-b]pyridazin-7-yl)-N-(2-fluoro-3-hydroxy-3-methylbutyl)-4-((4-(oxazol-5-yl)phenyl)amino) nicotinamide]	–	7.49	> 9.00	–	–
CC(C)(O)[C@H](F)CNC(=O)c1cnc(-c2ccc3cc(C#N)cnn23)cc1N[C@H]1CC[C@H](NC(=O)C2CCOCC2)CC1 [Example 294, 6-(3-cyanopyrrolo[1,2-b]pyridazin-7-yl)-N-((R)-2-fluoro-3-hydroxy-3-methylbutyl)-4-(((1r,4R)-4-(tetrahydro-2H-pyran-4-carboxamido)cyclohexyl)amino)nicotinamide]	–	6.13	8.52	–	–
CC(C)Nc1cc(-c2ccc3cc(C#N)cnn23)ncc1C(=O)NCCC(C)(N)C(F)F (stereo not shown) [Example 555, N-(3-amino-4,4-difluoro-3-methylbutyl)-6-(3-cyano-pyrrolo[1,2-b]pyridazin-7-yl)-4-(isopropylamino) nicotinamide]	9.00	7.02	–	–	–
CC(C)Nc1cc(-c2ccc3cc(C#N)cnn23)ncc1C(=O)N[C@@H]1CCOC1 [Example 37, (R)-6-(3-cyanopyrrolo[1,2-b]pyridazin-7-yl)-4-(isopropylamino)-N-(tetrahydrofuran-3-yl) nicotinamide]	–	6.55	7.92	–	–
CC(=O)N[C@@H]1CC[C@H](Nc2cc(-c3ccc4cc(C#N)cnn34)ncc2C(=O)NC[C@@H](F)C(C)(C)O)C1 [Example 312, 4-(((1S,3R)-3-acetamidocyclopentyl)amino)-6-(3-cyano-pyrrolo[1,2-b]pyridazin-7-yl)-N-((R)-2-fluoro-3-hydroxy-3-methylbutyl) nicotinamide]	–	6.70	8.70	–	–
CC(C)(O)[C@H](F)CNC(=O)c1cnc(-c2ccc3cc(C#N)cnn23)cc1Nc1ccc(N2CC3CC(C2)O3)nc1 [Example 922, 4-((6-(6-oxa-3-azabicyclo[3.1.1]heptan-3-yl)pyridin-3-yl)amino)-6-(3-cyanopyrrolo[1,2-b]pyridazin-7-yl)-N-((R)-2-fluoro-3-hydroxy-3-methylbutyl)nicotinamide]	–	–	> 9.00	7.38	–
COC(=O)NC1CC2(C1)CC(Nc1cc(-c3ccc4cc(C#N)cnn34)ncc1C(=O)NC[C@@H](F)C(C)(C)O)C2 (single isomer, unassigned) [Example 756]	9.00	–	–	–	7.23
CC(C)(O)[C@H](F)CNC(=O)c1cnc(-c2ccc3cc(C#N)cnn23)cc1N[C@@H]1CC2CN(C(N)=O)C[C@H]2C1 (stereo partly drawn) [Example 238, (3aR,5s,6aS)-5-((2-(3-cyanopyrrolo[1,2-b]pyridazin-7-yl)-5-(((R)-2-fluoro-3-hydroxy-3-methylbutyl)carbamoyl)pyridin-4-yl)amino)hexa-hydrocyclopenta[c]pyrrole-2(1H)-carboxamide]	–	6.65	> 9.00	–	–
Cn1cnc(-c2ccc(Nc3cc(-c4ccc5cc(C#N)cnn45)ncc3C(=O)NC[C@@H](F)C(C)(C)O)cc2)n1 [Example 179, (R)-6-(3-cyanopyrrolo[1,2-b]pyridazin-7-yl)-N-(2-fluoro-3-hydroxy-3-methylbutyl)-4-((4-(1-methyl-1H-1,2,4-triazol-3-yl)phenyl)amino) nicotinamide]	–	7.23	9.00	–	–
CC(C)(O)[C@H](F)CNC(=O)c1cnc(-c2ccc3cc(C#N)cnn23)cc1Nc1cnsc1 [Example 59, (R)-6-(3-cyanopyrrolo[1,2-b]pyridazin-7-yl)-N-(2-fluoro-3-hydroxy-3-methylbutyl)-4-(isothiazol-4-ylamino)nicotinamide]	–	7.24	> 9.00	–	–
CN1CCC(Nc2cc(-c3ccc4cc(C#N)cnn34)ncc2C(=O)NC[C@@H](F)C(C)(C)O)CC1=O (stereo partly drawn) [Example 155, 6-(3-cyanopyrrolo[1,2-b]pyridazin-7-yl)-N-((R)-2-fluoro-3-hydroxy-3-methylbutyl)-4-((1-methyl-2-oxopiperidin-4-yl)amino) nicotinamide]	–	6.82	9.00	–	–
CC(C)(O)[C@H](F)CNC(=O)c1cnc(-c2ccc3cc(C#N)cnn23)cc1Nc1cnn([C@H]2CCN(C3COC3)C2)c1 [Example 199, 6-(3-cyanopyrrolo[1,2-b]pyridazin-7-yl)-N-((R)-2-fluoro-3-hydroxy-3-methylbutyl)-4-((1-((S)-1-(oxetan-3-yl)pyrrolidin-3-yl)-1H-pyrazol-4-yl)amino)nicotinamide]	–	7.09	> 9.00	–	–
CC(C)Nc1cc(-c2ccc3cc(C#N)cnn23)ncc1C(=O)NNC(=O)C(C)(C)O [Example 66, 6-(3-cyanopyrrolo[1,2-b]pyridazin-7-yl)-N′-(2-hydroxy-2-methylpropanoyl)-4-(isopropylamino) nicotinohydrazide]	–	6.34	7.34	–	–
COC(=O)NC[C@H]1C[C@H](Nc2cc(-c3ccc4cccnn34)ncc2C(=O)NC[C@@H](F)C(C)(C)O)C1 [Example 818, methyl (((1R,3r)-3-((5-(((R)-2-fluoro-3-hydroxy-3-methylbutyl)carbamoyl)-2-(pyrrolo[1,2-b]pyridazin-7-yl)pyridin-4-yl)amino)cyclo-butyl)methyl)carbamate]	–	–	8.40	6.65	–
CNC(=O)O[C@H]1CC[C@@H](Nc2cc(-c3ccc4cc(C#N)cnn34)ncc2C(=O)NC[C@@H](F)C(C)(C)O)CC1 [Example 168, (1S,4s)-4-((2-(3-cyano-pyrrolo[1,2-b]pyridazin-7-yl)-5-(((R)-2-fluoro-3-hydroxy-3-methylbutyl)carbamoyl)pyridin-4-yl)amino)cyclohexyl methylcarbamate]	–	< 5.00	6.00	–	–
CN(C)C(=O)C(F)(F)CNC(=O)c1cnc(-c2ccc3cc(C(N)=O)cnn23)cc1NC12CCC(O)(CC1)CC2 [Example 962, 7-(5-((3-(dimethylamino)-2,2-difluoro-3-oxopropyl)carbamoyl)-4-((4-hydroxybicyclo[2.2.2]octan-1-yl)amino)pyridin-2-yl)pyrrolo[1,2-b]pyridazine-3-carboxamide]	–	–	6.19	< 5.00	–
CC(=O)N1CCC(Nc2cc(-c3ccc4cc(C#N)cnn34)ncc2C(=O)NC[C@@H](F)C(C)(C)O)CC1 [Example 16, (R)-4-((1-acetylpiperidin-4-yl)amino)-6-(3-cyanopyrrolo[1,2-b]pyridazin-7-yl)-N-(2-fluoro-3-hydroxy-3-methylbutyl)nicotinamide]	–	6.69	8.70	–	–
N#Cc1cnn2c(-c3cc(Nc4cccnc4)c(C(=O)N[C@H]4CC[C@H](NC(=O)C5CC5)CC4)cn3)ccc2c1 [Example 502, 6-(3-cyanopyrrolo[1,2-b]pyridazin-7-yl)-N-((1r,4r)-4-(cyclopropane-carboxamido)cyclohexyl)-4-(pyridin-3-ylamino) nicotinamide]	9.00	7.03	–	–	–
N#Cc1ccc(NC(=O)c2cnc(-c3ccc4cc(C#N)cnn34)cc2N[C@H]2CCC[C@@H](O)C2)nc1 [Example 386, 6-(3-cyanopyrrolo[1,2-b]pyridazin-7-yl)-N-(5-cyanopyridin-2-yl)-4-(((1S,3R)-3-hydroxycyclohexyl)amino)nicotinamide]	–	5.62	8.10	–	–
COCCn1cc(Nc2cc(-c3ccc4cc(C#N)cnn34)ncc2C(=O)NC[C@@H](F)C(C)(C)O)cn1 [Example 119, (R)-6-(3-cyanopyrrolo[1,2-b]pyridazin-7-yl)-N-(2-fluoro-3-hydroxy-3-methylbutyl)-4-((1-(2-methoxyethyl)-1H-pyrazol-4-yl)amino) nicotinamide]	–	7.49	> 9.00	–	–
CC(C)(O)[C@H](F)CNC(=O)c1cnc(-c2ccc3cc(C#N)cnn23)cc1Nc1ccc2ncccc2c1 [Example 820, (R)-6-(3-cyanopyrrolo[1,2-b]pyridazin-7-yl)-N-(2-fluoro-3-hydroxy-3-methylbutyl)-4-(quinolin-6-ylamino)nicotinamide]	–	–	> 9.00	7.23	–
COC(=O)NC12CCC(Nc3cc(-c4ccc5cc(C#N)cnn45)ncc3C(=O)NCC#N)(CC1)CC2 [Example 267, methyl (4-((5-((cyanomethyl)carbamoyl)-2-(3-cyanopyrrolo[1,2-b]pyridazin-7-yl)pyridin-4-yl)amino)bicyclo[2.2.2]octan-1-yl)carbamate]	–	7.72	> 9.00	–	–
N#Cc1cnn2c(-c3cc(NC45CCC(O)(CC4)CC5)c(C(=O)NCC(=O)N4CCOCC4)cn3)ccc2c1 [Example 785, 6-(3-cyanopyrrolo[1,2-b]pyridazin-7-yl)-4-((4-hydroxybicyclo[2.2.2]octan-1-yl)amino)-N-(2-morpholino-2-oxoethyl)nicotinamide]	> 9.00	7.64	–	–	–
CNC(=O)O[C@H]1CC[C@H](Nc2cc(-c3ccc4cc(C#N)cnn34)ncc2C(=O)NC[C@@H](F)C(C)(C)O)CC1 [Example 165, (1R,4r)-4-((2-(3-cyano-pyrrolo[1,2-b]pyridazin-7-yl)-5-(((R)-2-fluoro-3-hydroxy-3-methylbutyl)carbamoyl)pyridin-4-yl)amino)cyclohexyl methylcarbamate]	–	< 5.00	7.23	–	–
COC(=O)NC[C@H]1C[C@@H](Nc2cc(-c3ccc4cc(C#N)cnn34)ncc2C(=O)NC[C@@H](F)C(C)(C)O)C1 [Example 698, methyl (((1S,3s)-3-((2-(3-cyanopyrrolo[1,2-b]pyridazin-7-yl)-5-(((R)-2-fluoro-3-hydroxy-3-methylbutyl)carbamoyl)pyridin-4-yl)amino)cyclo-butyl)methyl)carbamate]	8.52	6.70	–	–	–

— US10336762B2 (priority 2017, dated 2019)
